Measurements taken from PubChem BioAssay AID492970 (The Scripps Research Institute Molecular Screening Center, 2010).

Target: Protein-arginine deiminase type-4 (Homo sapiens) (UniProt Q9UM07)
Test: IC50 against protein arginine deiminase 4 – biochemical, fluorescence readout, dose response (AID 492970)
Settings: recombinant PAD4, BAEE citrulline colorimetric readout

Chain of Protein-arginine deiminase type-4 (Homo sapiens) (Q9UM07 whole entry, looked up): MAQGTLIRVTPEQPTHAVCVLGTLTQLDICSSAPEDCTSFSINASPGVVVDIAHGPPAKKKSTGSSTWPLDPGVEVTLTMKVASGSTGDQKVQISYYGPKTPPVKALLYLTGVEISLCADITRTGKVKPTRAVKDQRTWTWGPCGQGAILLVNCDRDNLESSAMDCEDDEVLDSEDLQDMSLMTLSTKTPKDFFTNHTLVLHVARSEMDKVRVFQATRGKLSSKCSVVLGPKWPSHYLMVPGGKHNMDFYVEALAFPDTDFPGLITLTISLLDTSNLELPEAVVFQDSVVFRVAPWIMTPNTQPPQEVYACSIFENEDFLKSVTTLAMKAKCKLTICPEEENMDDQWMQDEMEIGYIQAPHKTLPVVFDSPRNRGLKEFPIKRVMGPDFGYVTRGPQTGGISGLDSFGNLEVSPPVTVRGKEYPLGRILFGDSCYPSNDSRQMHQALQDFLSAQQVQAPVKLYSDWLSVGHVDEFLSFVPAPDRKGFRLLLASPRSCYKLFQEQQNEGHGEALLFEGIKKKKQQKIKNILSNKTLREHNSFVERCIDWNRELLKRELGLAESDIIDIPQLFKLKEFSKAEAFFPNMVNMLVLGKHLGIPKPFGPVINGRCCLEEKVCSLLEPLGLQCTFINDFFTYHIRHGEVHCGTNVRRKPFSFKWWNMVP

Compound `COC1=C(N)C(=O)c2nc(-c3nc(C(=O)O)c(C)c(-c4ccc(OC)c(OC)c4O)c3N)ccc2C1=O` has an IC50 of 2500 nM.
